Experiment [1] addresses Acetylcholinesterase (Electrophorus electricus) (UniProt O42275). To be noted: at 2 mg/mL.
Description: Inhibition of electric eel AChE at 2 mg/ml by Ellman's method
The target of experiment [2] is Cholinesterase (Equus caballus) (UniProt P81908). To be noted: at 2 mg/mL.
Sequence of Cholinesterase (Equus caballus) (P81908 whole entry): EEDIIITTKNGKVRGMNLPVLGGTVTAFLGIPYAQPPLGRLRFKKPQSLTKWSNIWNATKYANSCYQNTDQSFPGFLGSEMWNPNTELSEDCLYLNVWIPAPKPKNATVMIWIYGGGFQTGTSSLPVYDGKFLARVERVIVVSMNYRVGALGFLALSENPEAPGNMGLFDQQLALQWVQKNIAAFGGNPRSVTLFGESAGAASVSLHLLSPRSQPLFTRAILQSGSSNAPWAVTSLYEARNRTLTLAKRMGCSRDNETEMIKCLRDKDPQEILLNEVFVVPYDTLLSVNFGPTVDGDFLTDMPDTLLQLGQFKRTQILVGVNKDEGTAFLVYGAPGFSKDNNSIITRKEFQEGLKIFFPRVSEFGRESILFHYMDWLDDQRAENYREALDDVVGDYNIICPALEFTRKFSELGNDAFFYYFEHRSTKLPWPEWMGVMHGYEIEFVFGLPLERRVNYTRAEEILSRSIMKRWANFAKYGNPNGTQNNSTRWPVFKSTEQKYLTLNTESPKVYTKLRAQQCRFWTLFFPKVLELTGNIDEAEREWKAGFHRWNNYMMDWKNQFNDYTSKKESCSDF
Description: Inhibition of horse BChE at 2 mg/ml by Ellman's method

Sequence of Acetylcholinesterase (Electrophorus electricus) (O42275 24-633 limits assumed): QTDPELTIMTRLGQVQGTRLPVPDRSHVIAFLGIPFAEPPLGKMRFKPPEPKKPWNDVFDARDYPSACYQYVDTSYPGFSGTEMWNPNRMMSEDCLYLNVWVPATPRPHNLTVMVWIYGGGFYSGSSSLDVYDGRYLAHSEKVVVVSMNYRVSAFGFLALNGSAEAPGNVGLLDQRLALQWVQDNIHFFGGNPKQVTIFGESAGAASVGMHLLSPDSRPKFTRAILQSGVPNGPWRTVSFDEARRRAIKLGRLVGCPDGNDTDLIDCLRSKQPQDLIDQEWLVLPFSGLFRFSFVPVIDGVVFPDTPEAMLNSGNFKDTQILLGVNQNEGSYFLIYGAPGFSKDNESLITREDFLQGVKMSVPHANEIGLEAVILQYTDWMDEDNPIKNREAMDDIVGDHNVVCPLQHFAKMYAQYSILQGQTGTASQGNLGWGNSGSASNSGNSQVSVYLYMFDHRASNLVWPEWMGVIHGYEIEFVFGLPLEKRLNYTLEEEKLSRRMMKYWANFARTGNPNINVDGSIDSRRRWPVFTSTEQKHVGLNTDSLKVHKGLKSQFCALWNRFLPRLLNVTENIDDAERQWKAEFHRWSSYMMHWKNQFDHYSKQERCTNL

`C[C@H]1CC[C@@H]2N(C1)C[C@H]1[C@@H]3C[C@H]4[C@@H](CC(=O)[C@H]5C[C@@H](O)CC[C@@]54C)[C@@H]3CC[C@H]1[C@]2(C)O`: the inhibition was determined as 24.9% in experiment [1] and 6.5% in experiment [2].
With `Cc1coc2c1C(=O)C(=O)c1c-2ccc2c1CCCC2(C)C`, the inhibition in experiment [1] is 13.1%; in experiment [2] it was -0.66%.
Regarding `C/C=C/C/C=C/CCC(=O)[C@H]1O[C@H]1C(N)=O`, the figures for the inhibition in experiment [1] and in experiment [2] were -4.02% and 3.38%, respectively.
On the same counts, the results for `CC[C@H]1CN2CCc3cc(OC)c(OC)cc3[C@@H]2C[C@@H]1C[C@H]1NCCc2cc(O)c(OC)cc21` are 11.9% and -6.9%.
On to `C/C=C(\C)C(=O)O[C@H]1CC(C)=CC(=O)[C@@]2(C)CC[C@@](O)(C(C)C)[C@H]12`, for which the inhibition in experiment [1] was 16.6%; in experiment [2], -1.66%.
The like results for `COc1c(C)c2c(c(O)c1C/C=C(\C)CCC(=O)O)C(=O)OC2` were, in that order, -6.25% and -7.04%.
`CC[C@@H](C(=O)[C@@H](C)[C@@H](O)[C@H](C)[C@@H]1O[C@@H]([C@@H](CC)C(=O)O)CC[C@@H]1C)[C@H]1O[C@]2(C=C[C@@H](O)[C@]3(CC[C@@](C)([C@H]4CC[C@](O)(CC)[C@H](C)O4)O3)O2)[C@H](C)C[C@@H]1C`: the figures for the inhibition in experiment [1] and in experiment [2] were 4.25% and 3.73%, respectively.
On to `COC(=O)/C(=C1/OC(=O)C(c2ccccc2)=C1O)c1ccccc1`, for which the inhibition in experiment [1] is 4.9%; in experiment [2], 0.35%.
As to `C=C(C)[C@H]1CN[C@H](C(=O)O)[C@H]1CC(=O)O`, the inhibition in experiment [1] was -5.89%; in experiment [2] it was 4.53%.
`COc1cc(/C=C/C(=O)CC(=O)/C=C/c2ccc(O)c(OC)c2)ccc1O`: the values for the inhibition in experiment [1] and in experiment [2] were -2.21% and 2.41%, respectively.
For the compound `COc1cccc2c1C(=O)c1c(O)c3c(c(O)c1C2=O)C[C@@](O)(C(=O)CO)C[C@@H]3O[C@H]1C[C@H](N)[C@H](O)[C@H](C)O1`, the figures for the inhibition in experiment [1] and in experiment [2] were 10.4% and 1.2%, respectively.
As to `CO[C@H]1C=C2CCN(C)[C@H]2[C@@H]2c3cc4c(cc3C(=O)O[C@@H]21)OCO4`, the inhibition in experiment [1] was 25.8%; in experiment [2], -2.26%.
Turning to `Cc1cc(O)c2c(=O)c3c(O)cc(O)c4c5c(O)cc(O)c6c(=O)c7c(O)cc(C)c8c1c2c(c34)c(c78)c65`, the inhibition in experiment [1] is -7.15%; in experiment [2] it was 14.3%.
Regarding `O=c1cc(-c2ccc(O)cc2)oc2cc(O)c([C@@H]3O[C@H](CO)[C@@H](O)[C@H](O)[C@H]3O)c(O)c12`, the inhibition was found to be 20.7% in experiment [1] and 1.98% in experiment [2].
The like results for `CC(=O)O[C@H]1[C@H]2[C@@H](OC(=O)Cc3ccccc3)[C@@H](C)C[C@]2(OC(C)=O)C(=O)/C(C)=C/[C@@H]2[C@H](CC[C@@]13CO3)C2(C)C` were, in that order, -2.46% and -5.46%.
The like results for `CC(C)(O)[C@@H]1[C@H]2OC(=O)[C@@H]1[C@]1(O)C[C@H]3O[C@]34C(=O)O[C@H]2[C@]14C` were, in that order, 22.6% and 1.96%.
For the compound `CCCCCC[C@@H]1[C@@H](OC(=O)C(C)C)[C@H](C)O[C@@H](O)[C@@H](N[C@H](O)c2cccc(NC=O)c2O)[C@@H](C)O[C@H]1O`, in experiment [1], the inhibition was -2.88%.
Consider `O=c1c2ccccc2nc2n1CCc1c-2[nH]c2ccccc12`, for which the inhibition in experiment [1] is -4%.
The same measure, in the same setting: the same measure for `OCC1=C[C@@H](O)[C@@H]2C=CO[C@@H](O[C@@H]3O[C@H](CO)[C@@H](O)[C@H](O)[C@H]3O)[C@H]12`: -1.28%.
As for `CCCCCCCCCCCC1=C(O)C(=O)C=C(O)C1=O`, the inhibition in experiment [2] amounted to 1.24%.
Still for that read-out and setting: to `CO[C@H]1[C@H](OC(=O)c2ccc(C)[nH]2)[C@H](O)[C@@H](Oc2ccc3c(O)c(NC(=O)c4c[nH]c(C(=O)Nc5c(O)c6ccc(O[C@H]7OC(C)(C)[C@@H](OC)[C@H](OC(=O)c8ccc(C)[nH]8)[C@@H]7O)c(C)c6oc5=O)c4C)c(=O)oc3c2C)OC1(C)C` belongs 3.14%.
Regarding `COc1ccc([C@@H]2CC(=O)c3c(O)cc(O[C@@H]4O[C@H](CO[C@@H]5O[C@@H](C)[C@H](O)[C@@H](O)[C@H]5O)[C@@H](O)[C@H](O)[C@H]4O)cc3O2)cc1O`, in experiment [1], the inhibition is -4.26%.
Regarding `Clc1ccc(C2CC3CCC2N3)cn1` (racemic), the inhibition in experiment [2] stood at 5.32%.
On the same count and under the same terms, to `CCCCCCCCCCCCCC/C(C(=O)O)=C(\C)C(=O)O` belongs 9.23%.
As for `C[C@@]12C=Cc3occc3[C@H]1CC[C@]13CC(=O)[C@H](CC[C@H]12)C3`, in experiment [1], the inhibition was 8.34%.
Turning to `CC[C@@H](C(=O)O)[C@@H]1O[C@@H]([C@@H](C)[C@H](O)[C@H](C)C(=O)[C@H](CC)[C@H]2O[C@]3(C=C[C@@H](O)[C@]4(CC[C@@](C)([C@H]5CC[C@](O)(CC)[C@H](C)O5)O4)O3)[C@H](C)C[C@@H]2C)[C@@H](C)C[C@@H]1C`, the inhibition in experiment [1] is -1.36%.
As to `C[C@@H]1C[C@@H]([C@H](O)CC2CC(=O)NC(=O)C2)C(=O)[C@@H](C)C1`, in experiment [2], the inhibition is -2.08%.
Regarding `COc1cccc2c1cc([N+](=O)[O-])c1c(C(=O)O)cc3c(c12)OCO3`, the inhibition in experiment [2] turned out to be 22.7%.
For the compound `c1cncc([C@@H]2CCCCN2)c1`, the inhibition in experiment [1] worked out at 0.25%.
On to `CC(C)=CCC/C(C)=C/CC/C(C)=C/CC/C(C)=C/CC/C(C)=C/CC/C(C)=C/CC/C(C)=C/CC/C(C)=C/CC/C(C)=C/CO`, for which the inhibition in experiment [1] is -1.74%.
On to `CS[C@H]1SC[C@H]2C(=O)N(C)[C@@H](C(C)C)C(=O)OC[C@@H](NC(=O)c3cnc4ccccc4n3)C(=O)N[C@@H](C)C(=O)N(C)[C@@H]1C(=O)N(C)[C@@H](C(C)C)C(=O)OC[C@@H](NC(=O)c1cnc3ccccc3n1)C(=O)N[C@@H](C)C(=O)N2C`, for which the inhibition in experiment [2] was -7.37%.
For `CC1=CC(=O)CC(C)(C)C1(O)/C=C/C(C)=C\C(=O)O` (racemic), the inhibition in experiment [2] is -4.4%.
For `C=C1CC[C@@H]2O[C@]2(C)CC[C@@H]2[C@@H]1CC2(C)C`, the inhibition in experiment [2] was found to be 1.64%.
Regarding `CC[C@@H](CO)NC(=O)[C@@H]1C=C2c3cccc4[nH]cc(c34)C[C@H]2N(C)C1`, the inhibition in experiment [1] was 6.45%.
Turning to `c1ccc2c3c([nH]c2c1)CNCC3`, the inhibition in experiment [2] is -5.97%.
With `CC(C)=CCC[C@](C)(O)[C@H]1CC[C@]2(C)[C@@H]1CC[C@@H]1[C@@]3(C)CCC(=O)C(C)(C)[C@@H]3CC[C@]12C`, the inhibition in experiment [2] is -2.48%.
With `CNC(=O)Oc1ccc2c(c1)[C@]1(C)CCN(C)[C@@H]1N2C`, the inhibition in experiment [2] is 88%.
For the compound `C=C[C@@]1(C)CC(=O)[C@]2(O)[C@@]3(C)[C@@H](O)CCC(C)(C)[C@@H]3[C@H](O)[C@H](OC(C)=O)[C@@]2(C)O1`, in experiment [2], the inhibition is 1.35%.
With `O=C(O)CCCc1c[nH]c2ccccc12`, the inhibition in experiment [2] is -5.54%.
Turning to `COc1ccc([C@@H]2OC[C@@H]3[C@H]2CO[C@H]3c2ccc(OC)c(OC)c2)cc1OC`, in experiment [2], the inhibition is 0.02%.
As for `COC1=CC(=O)OC(/C=C/c2ccccc2)C1` (racemic), the inhibition in experiment [2] is -2.41%.
Regarding `COc1ccc2c3c1O[C@H]1C[C@@H](O)C=C[C@@]31CCN(C)C2`, the inhibition in experiment [2] worked out at 37.8%.
Same read-out and setting: to `CN1C(=O)[C@]23CC4=CC=C[C@H](O)[C@H]4N2C(=O)[C@@]1(CO)SS3` belongs 10.3%; to `CC(=O)O[C@@]12C[C@@H](C)[C@@]3(O)[C@@H](C=C(CO)C[C@]4(O)C(=O)C(C)=C[C@@H]34)[C@@H]1C2(C)C`, 3.93%.
On to `CC(=O)OC[C@@]1(O)C[C@@]23CC[C@@H]4c5ccoc5CC[C@@]4(C)[C@@H]2CC[C@@H]1C3`, for which the inhibition in experiment [1] is -6.2%.
As to `O[C@H]1[C@H](O)[C@@H](O)CN2CC[C@H](O)[C@H]12`, the inhibition in experiment [2] amounted to 0.79%.
With `CC1=C(C(=O)O)N2C(=O)[C@@H](NC(=O)[C@H](N)C3=CCC=CC3)[C@H]2SC1`, the inhibition in experiment [1] was -0.38%.
Regarding `C[C@@H]1C(=O)O[C@H]2C[C@@]34[C@H]5C[C@@H](C(C)(C)C)[C@]36[C@@H](OC(=O)[C@@H]6O)O[C@@]4(C(=O)O5)[C@]21O`, the inhibition in experiment [1] is 6.97%.
Take `CC(=O)C1=C(O)[C@@H]2[C@H]3c4c[nH]c5cccc(c45)C[C@H]3C(C)(C)N2C1=O`: in experiment [2], the inhibition is 6.85%.
Take `O=C1c2ccc(O)cc2O[C@@H](c2cc(O)c(O)c(O)c2)[C@@H]1O`: the inhibition in experiment [1] was 4.04%.
For the compound `O=C(O[C@@H]1Cc2c(O)cc(O)cc2O[C@@H]1c1cc(O)c(O)c(O)c1)c1cc(O)c(O)c(O)c1`, in experiment [2], the inhibition is -4.27%.
As to `C/C(=C/C=C/[C@@H](C)C(=O)O)[C@H]1CN[C@H](C(=O)O)[C@H]1CC(=O)O`, the inhibition in experiment [2] was determined as 2.83%.
`Nc1ncnc2c1ccn2[C@@H]1O[C@H](CO)[C@@H](O)[C@H]1O`: in experiment [1], the inhibition was 4.48%.
For `COc1ccc(Cc2nccc3cc(OC)c(OC)cc23)cc1OC`, the inhibition in experiment [1] was 35%.
In the case of `CC(=O)OCC1=C[C@H]2[C@@H]3C(C)(C)[C@]3(OC(=O)Cc3ccccc3)C[C@@H](C)[C@]2(O)[C@@H]2C=C(C)C(=O)[C@@]2(O)C1`, the inhibition in experiment [2] came to 6.06%.
Take `CC1(C)O[C@H]2CC(=O)OC[C@]23[C@H]2CC[C@@]4(C)[C@H](c5ccoc5)OC(=O)[C@H]5O[C@]54[C@]2(C)C(=O)C[C@@H]13`: the inhibition in experiment [1] was -0.85%.
Turning to `C=C1O[C@@](CO)(n2cnc3c(N)ncnc32)[C@H](O)[C@@H]1O`, in experiment [2], the inhibition was -3.01%.
In the case of `CC(C)(C)[C@]1(O)CC2OC(=O)CC23C(=O)OC2OC(=O)[C@H](O)C231` (stereo not given in full), the inhibition in experiment [2] is 10.9%.
For the compound `CC[C@@]1([C@@H]2O[C@@H]([C@H]3O[C@@](O)(CO)[C@H](C)C[C@@H]3C)C[C@@H]2C)CC[C@H]([C@]2(C)CC[C@]3(C[C@H](O)[C@@H](C)[C@@H]([C@@H](C)[C@@H](OC)[C@H](C)C(=O)O)O3)O2)O1`, the inhibition in experiment [2] stood at 2.48%.
For the compound `CNc1ccc2oc(C[C@H]3O[C@@]4(CC[C@H]3C)O[C@H]([C@H](C)C(=O)c3ccc[nH]3)[C@H](C)C[C@H]4C)nc2c1C(=O)O`, the inhibition in experiment [2] was -3.34%.
Same read-out and setting: the same measure for `OC[C@@H]1[C@@H](O)[C@H](O)[C@H]2[C@@H](O)CCN21`: 1.12%.
For `O=C(O)/C=C/c1c[nH]c2ccccc12`, the inhibition in experiment [2] stood at 4.54%.
As to `Cc1cc2c(C(C)C)c(O)c(O)c(C=O)c2c(O)c1-c1c(C)cc2c(C(C)C)c(O)c(O)c(C=O)c2c1O`, in experiment [2], the inhibition was -2.11%.
With `COc1ccc2c(c1O)-c1c(OC)c(OC)cc3c1[C@H](C2)N(C)CC3`, the inhibition in experiment [1] was -6.07%.

Source of the values: ChEMBL document CHEMBL2163249, “Exploration of natural compounds as sources of new bifunctional scaffolds targeting cholinesterases and beta amyloid aggregation: the case of chelerythrine” (Bioorg Med Chem, 2012).
